Experimental findings from ChEMBL document CHEMBL1201862, “PubChem BioAssay data set” (2004) are described below.

What all share (assay): NCI-60 cell line screen, 48 h
Experiment [1] relates to A498.
The test system of experiment [2] is A549.
In experiment [3] the test system is CCRF-CEM.
Experiment [4] deals with HOP-62.
For experiment [5], the system named is HOP-92.
The subject of experiment [6] is HT-29.
In experiment [7] the test system is Hs-578T.
Experiment [8] has as its system LOX IMVI.
In experiment [9] the test system is MCF7.
Experiment [10] concerns Malme-3M.
The test system of experiment [11] is NCI-H23.
Experiment [12] has as its system NCI/ADR-RES.
Experiment [13] concerns OVCAR-5.
In experiment [14] the test system is PC-3.
Experiment [15] concerns SK-MEL-2.
The test system of experiment [16] is SK-MEL-5.
The subject of experiment [17] is SN12C.
Experiment [18] relates to TK-10.
Experiment [19] concerns SF-539.

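Method: 48-hour compound exposure of cells in 96-well plates, five concentrations, linear interpolation of endpoints. GI50 = concentration required for 50% inhibition of growth.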 The source made the active and inactive calls. Rule as the data show it: active = GI50 up to about 1.1 µM and inactive = higher.

For `O=C(O)c1[nH]c(=O)[nH]c(=O)c1CN1CCCCC1`, the GI50 in experiment [1] was > 100 µM (inactive); in [2], > 100 µM (inactive); in [3], 0.0553 µM (active); in experiment [4], > 100 µM (inactive); in experiment [5] it was > 100 µM (inactive); in experiment [6] it was > 100 µM (inactive). The GI50 in experiment [7], in experiment [8], in [9], in experiment [10], in experiment [11] and in [12] was > 100 µM (inactive) in each case. Moreover, the GI50 in experiment [13], in experiment [14], in experiment [15], in [16], in experiment [17] and in experiment [18] was > 100 µM (inactive) throughout.

For the compound `O=S(=O)(O)c1cc(O)c2c(O)c(/N=N/c3cccc4ccccc34)c(S(=O)(=O)O)cc2c1`, the GI50 in experiment [1], in experiment [2], in [4], in experiment [5], in [6] and in experiment [7] was > 100 µM (inactive) throughout. Further, the GI50 in experiment [8], in experiment [9], in experiment [10], in experiment [11], in experiment [12] and in experiment [13] was > 100 µM (inactive) throughout. Besides, the GI50 in experiment [14], in experiment [19], in [15], in [16], in [17] and in experiment [18] was > 100 µM (inactive) in each case.

For `O=C1C(=O)C(CCCO)(CCCO)CCCCCCCCC1(CCCO)CCCO`, the GI50 in [1] is > 100 µM (inactive); in experiment [2], 45.8 µM (inactive); in [4], > 100 µM (inactive); in experiment [5], 39.7 µM (inactive); in [6], 67 µM (inactive); in experiment [7], 57.7 µM (inactive). Also, the GI50 was 64.7 µM (inactive) in [8]; 55.1 µM (inactive) in experiment [9]; > 100 µM (inactive) in experiment [10]; > 100 µM (inactive) in [11]; > 100 µM (inactive) in experiment [12]; > 100 µM (inactive) in experiment [13]. The GI50 in [14] was 55.3 µM (inactive); in [19] it was 80.4 µM (inactive); in experiment [15], 46.8 µM (inactive); in [16] it was 41.1 µM (inactive); in [17], > 100 µM (inactive); in [18], 87.3 µM (inactive).

In the case of `Cc1cc(C)c2c(c1)C(=O)C1(C2)Cc2c(ccc(C)c2C)C1=O` (stereo not drawn), the GI50 in experiment [1], in experiment [2], in experiment [3], in experiment [5], in experiment [7] and in experiment [8] was > 100 µM (inactive) throughout. Moreover, the GI50 in experiment [9] was > 100 µM (inactive); in [10], 22.3 µM (inactive); in [12] it was > 100 µM (inactive); in experiment [14], > 100 µM (inactive); in experiment [19], 85.5 µM (inactive); in experiment [15], > 100 µM (inactive). Besides, the GI50 in [16], in experiment [17] and in experiment [18] was > 100 µM (inactive) each time.

Turning to `CCOC(=O)C1=CNC(C(=O)OCC)C1c1cccn1-c1ccccc1` (stereo not drawn), the GI50 was 37 µM (inactive) in [1]; 33.9 µM (inactive) in [2]; 29.3 µM (inactive) in experiment [3]; 58.3 µM (inactive) in [4]; 16.3 µM (inactive) in experiment [5]; 23 µM (inactive) in [6]. Further, the GI50 is 38.6 µM (inactive) in experiment [7]; 16.6 µM (inactive) in experiment [8]; 31.9 µM (inactive) in experiment [9]; 37.7 µM (inactive) in [11]; 22.8 µM (inactive) in [12]; 52.1 µM (inactive) in experiment [13]. The GI50 in [14] is 18.8 µM (inactive); in experiment [19], 20.4 µM (inactive); in experiment [15], 12.1 µM (inactive); in experiment [16], 17.5 µM (inactive); in experiment [17], 29.4 µM (inactive); in [18], 41.8 µM (inactive).

With `FC(F)(F)C1(C(F)(F)F)OC(Cl)(Cl)C(Cl)(Cl)O1`, the GI50 in experiment [1], in experiment [2], in [4], in [5], in [6] and in [7] was > 10 µM (inactive) in each case. The GI50 in experiment [8], in [9], in [10], in [11], in experiment [12] and in [13] was > 10 µM (inactive) each time. Moreover, the GI50 in experiment [14], in experiment [19], in [15], in experiment [16] and in [18] was > 10 µM (inactive) in each case.

Consider `Cc1[nH]c2c(C)ccc(C)c2c1CC(=O)O`, for which the GI50 was 57 µM (inactive) in experiment [1]; 42.3 µM (inactive) in experiment [2]; 20 µM (inactive) in experiment [3]; 81.5 µM (inactive) in [4]; 43.3 µM (inactive) in experiment [6]; 25.2 µM (inactive) in experiment [7]. The GI50 in [8] is 36.5 µM (inactive); in experiment [9], 36.6 µM (inactive); in experiment [10] it was 37.7 µM (inactive); in experiment [11] it was 51.8 µM (inactive); in experiment [12] it was 54.6 µM (inactive); in experiment [13] it was > 100 µM (inactive). For the same compound, the GI50 was 22 µM (inactive) in [14]; 94.2 µM (inactive) in experiment [19]; 18.2 µM (inactive) in [15]; 48.9 µM (inactive) in experiment [16]; 34.3 µM (inactive) in experiment [17]; 57 µM (inactive) in experiment [18].

As to `Cc1ccc(CC2(OCCN(C)C)CCC(C(C)(C)C)CC2)cc1` (stereo not drawn), the GI50 in experiment [1] is 13 µM (inactive); in [2], 3.6 µM (inactive); in [3] it was 2.41 µM (inactive); in experiment [4], 3.01 µM (inactive); in experiment [6], 2.13 µM (inactive); in experiment [7] it was 12.1 µM (inactive). Further, the GI50 in [8] was 1.57 µM (inactive); in experiment [9] it was 2.43 µM (inactive); in [10], 1.63 µM (inactive); in [11], 10.7 µM (inactive); in experiment [12], 6.73 µM (inactive); in [13], 5.52 µM (inactive). In addition, the GI50 was 3.04 µM (inactive) in experiment [14]; 1.81 µM (inactive) in [19]; 1.97 µM (inactive) in experiment [15]; 1.58 µM (inactive) in [16]; 4.8 µM (inactive) in [17]; 4.47 µM (inactive) in experiment [18].

With `CC(=O)NCCC1CNc2ccccc21` (stereo not drawn), the GI50 in [1], in experiment [2], in [3], in [5], in [6] and in [7] was > 100 µM (inactive) throughout. The GI50 in experiment [8], in experiment [9], in experiment [10], in experiment [11], in experiment [12] and in [13] was > 100 µM (inactive) in each case. The GI50 in experiment [14], in [19], in experiment [15], in [16], in experiment [17] and in [18] was > 100 µM (inactive) each time.

Consider `CCCCCCCCCCCCCCCCNc1ccn(C2CC(OP(=O)(O)OCC3OC(n4cc(CC)c(=O)[nH]c4=O)CC3O)C(CO)O2)c(=O)n1` (stereo not drawn), for which the GI50 in experiment [1] was > 100 µM (inactive); in experiment [2] it was 22 µM (inactive); in experiment [4], 23.4 µM (inactive); in experiment [5] it was 48.4 µM (inactive); in [6], 21.6 µM (inactive); in experiment [7] it was 22.1 µM (inactive). In addition, the GI50 in experiment [8] was 44.7 µM (inactive); in experiment [9], 32.5 µM (inactive); in experiment [11], 34.6 µM (inactive); in experiment [12], 27.9 µM (inactive); in experiment [13] it was 23.9 µM (inactive); in experiment [14], 18.5 µM (inactive). Moreover, the GI50 is 18.4 µM (inactive) in experiment [19]; 19.4 µM (inactive) in [15]; 2.29 µM (inactive) in experiment [16]; 41.5 µM (inactive) in [17]; 77.3 µM (inactive) in experiment [18].

In the case of `Nc1ccc(Nc2cc(=O)[nH]c(=O)[nH]2)cc1Cl`, the GI50 in experiment [1], in experiment [2], in [3], in experiment [5], in experiment [6] and in experiment [7] was > 100 µM (inactive) in each case. In addition, the GI50 in [8], in [9], in [10], in experiment [11], in experiment [12] and in experiment [13] was > 100 µM (inactive) throughout. The GI50 in experiment [14], in experiment [19], in [15], in experiment [16], in [17] and in [18] was > 100 µM (inactive) each time.
